Measured values taken from patent US20050164173A1, “Combined treatments and methods for treatment of mycoplasma and mycoplasma-like organism infections” (priority 2001, published 2005).

Test system: mycoplasma-like organisms
Assay: tritiated uracil incorporation into mycoplasma-density fractions of CEM culture supernatant (sucrose density gradient)
Format: cell-based
Conditions: control peak about 1200 counts
Excerpt: As shown in FIGS. 1A-1C, superoxide dismutase (SOD) from a vegetal source has a significant decreasing effect on mycoplasma growth. SOD was included in the medium at the first of the five day experiment. The SOD was purified from melon plant material.

## superoxide dismutase [SOD]
50 μg/ml SOD in medium from first of five days
  peak of tritiated uracil incorporation (mycoplasma growth): around 500 counts
100 μg/ml SOD in medium from first of five days
  peak of tritiated uracil incorporation (mycoplasma growth): around 250 counts
